A short description of series [1]: crystallinity of the complexes. Type of series: physicochemical. Particulars: solid complex; i.e., substantially free of amorphous material.
Series [2] is described as follows: hygroscopic stability of the complexes. In kind it is physicochemical. Particulars: solid complex; weight changes of the active ingredient during manufacture of capsules or tablets.

In the case of `COCC(=O)NC/C=C/c1ccc2ncnc(Nc3ccc(Oc4ccc(C)nc4)c(C)c3)c2c1.O=C(O)CC(=O)O.O=C(O)CC(=O)O` [di-malonate, Di-malonate Complex of E-2-Methoxy-N-(3-{4-[3-methyl-4-(6-methyl-pyridin-3-yloxy)-phenylamino]-quinazolin-6-yl}-allyl)-acetamide], in series [1], the crystallinity result is listed as “high crystallinity”. Moreover, in series [2], the hygroscopic stability entry is “substantially hygroscopically stable”.
In the case of `COCC(=O)NC/C=C/c1ccc2ncnc(Nc3ccc(Oc4ccc(C)nc4)c(C)c3)c2c1.COCC(=O)NC/C=C/c1ccc2ncnc(Nc3ccc(Oc4ccc(C)nc4)c(C)c3)c2c1.O=C(O)CCC(=O)O.O=C(O)CCC(=O)O.O=C(O)CCC(=O)O` [sesquisuccinate, Sesquisuccinate Complex of E-2-Methoxy-N-(3-{4-[3-methyl-4-(6-methyl-pyridin-3-yloxy)-phenylamino]-quinazolin-6-yl}-allyl)-acetamide], the crystallinity entry in series [1] is reported as “high crystallinity”. The hygroscopic stability entry in series [2] is given as “substantially hygroscopically stable”.

The record behind these values is patent publication US6844349B2, “Salt forms of E-2-methoxy-N-(3-{4-[3 methyl-4-(6-methyl-pyridin-3-yloxy)-phenylamino]-quinazolin-6-yl}-allyl)-acetamide and method of production” (Pfizer Inc, priority 2001, dated 2005).
